Experimental data from patent US7420056B2, “Substituted bicyclic imidazo-3-ylamine compounds” (Gruenenthal GmbH, priority 2004, dated 2008).
Where a name gives a salt, the structure may show the parent alone.

Target: mGluR5 receptor (Sus scrofa, UniProt I3LUI7)
Test: Affinity for the mGluR5 receptor: inhibition of 3[H]-MPEP binding in pig brain homogenate
Settings: 10 μM compound, 5 nM 3[H]-MPEP, read-out: mGluR5 receptor inhibition of ^3[H]-MPEP binding [10 μM] in % at a concentration of the example compounds of 10 μM
Summary of the method: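 Pig brain membranes (450 μg protein; hemispheres without medulla, cerebellum and pons) in 30 mM Hepes pH 8.0 were incubated 60 min at room temperature with 5 nM [3H]-MPEP and compound at 10 μM. Bound radioactivity was filtered and counted. Nonspecific binding was defined with 10 μM MPEP.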

mGluR5 receptor, sequence (I3LUI7 19-1212): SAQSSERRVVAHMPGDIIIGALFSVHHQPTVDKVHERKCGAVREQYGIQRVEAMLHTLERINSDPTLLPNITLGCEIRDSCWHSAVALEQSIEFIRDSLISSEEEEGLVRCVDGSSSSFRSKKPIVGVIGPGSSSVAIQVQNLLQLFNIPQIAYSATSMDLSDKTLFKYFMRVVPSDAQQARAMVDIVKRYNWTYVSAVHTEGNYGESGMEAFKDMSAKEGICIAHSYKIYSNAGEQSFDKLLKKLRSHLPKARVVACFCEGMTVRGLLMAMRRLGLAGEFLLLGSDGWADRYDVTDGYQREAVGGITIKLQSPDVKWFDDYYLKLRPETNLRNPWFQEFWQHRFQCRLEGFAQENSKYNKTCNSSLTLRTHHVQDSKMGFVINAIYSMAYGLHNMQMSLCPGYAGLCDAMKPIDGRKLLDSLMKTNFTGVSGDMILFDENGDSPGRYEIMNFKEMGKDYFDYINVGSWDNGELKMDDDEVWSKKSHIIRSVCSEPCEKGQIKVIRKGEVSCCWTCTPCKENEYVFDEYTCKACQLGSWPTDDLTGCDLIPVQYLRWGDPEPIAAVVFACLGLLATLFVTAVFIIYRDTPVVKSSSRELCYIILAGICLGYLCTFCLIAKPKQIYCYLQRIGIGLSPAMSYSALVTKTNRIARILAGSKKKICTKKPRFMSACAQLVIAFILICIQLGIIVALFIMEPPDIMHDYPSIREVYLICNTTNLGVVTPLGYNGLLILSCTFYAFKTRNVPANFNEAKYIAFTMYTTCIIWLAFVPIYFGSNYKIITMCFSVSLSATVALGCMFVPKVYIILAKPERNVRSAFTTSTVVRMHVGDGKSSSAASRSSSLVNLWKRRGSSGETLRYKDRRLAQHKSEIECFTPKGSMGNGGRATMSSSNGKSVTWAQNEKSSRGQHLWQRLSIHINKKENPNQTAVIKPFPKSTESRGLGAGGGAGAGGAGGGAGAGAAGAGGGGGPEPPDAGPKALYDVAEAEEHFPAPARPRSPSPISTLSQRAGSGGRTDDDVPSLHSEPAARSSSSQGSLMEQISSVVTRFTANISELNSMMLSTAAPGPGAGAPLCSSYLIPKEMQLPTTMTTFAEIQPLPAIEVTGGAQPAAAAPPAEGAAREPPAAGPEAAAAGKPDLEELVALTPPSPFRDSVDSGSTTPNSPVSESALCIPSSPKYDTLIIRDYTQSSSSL

| SMILES | inhibition at 10 µM [%] |
| --- | --- |
| Cc1cccc(C#Cc2cccc(-c3nc4ccc(Cl)cn4c3NC(C)(C)C)c2)n1 [Example 320, N-tert-butyl-6-chloro-2-(3-((6-methylpyridin-2-yl)ethynyl)phenyl)imidazo[1,2-a]pyridin-3-amine] | 77 |
| Cc1cccn2c(Nc3ccc(F)cc3)c(-c3cccc(C#Cc4ccccn4)c3)nc12 [Example 296, N-(4-fluorophenyl)-8-methyl-2-(3-(pyridin-2-ylethynyl)phenyl)imidazo[1,2-a]pyridin-3-amine] | 85 |
| COc1ccc(CNc2c(-c3ccc(C#Cc4ccccc4)s3)nc3cc(C)cc(C)n23)cc1 [Example 14, [5,7-dimethyl-2-(5-phenylethynyl-thiophen-2-yl)-imidazo[1,2-a]pyridin-3-yl]-(4-methoxy-benzyl)-amine] | 100 |
| CC(C)(C)CC(C)(C)Nc1c(-c2ccc(C#Cc3ccccc3)s2)nc2c(OCc3ccccc3)cccn12 [Example 218, 8-(benzyloxy)-2-(5-(phenylethynyl)thiophen-2-yl)-N-(2,4,4-trimethylpentan-2-yl)imidazo[1,2-a]pyridin-3-amine] | 38 |
| CC(C)(C)CC(C)(C)Nc1c(-c2cccc(C#Cc3ccccn3)c2)nc2ncccn12 [Example 255, 2-(3-(pyridin-2-ylethynyl)phenyl)-N-(2,4,4-trimethylpentan-2-yl)imidazo[1,2-a]pyrimidin-3-amine] | 81 |
| CC(Nc1c(-c2cc(C#Cc3ccccc3)cs2)nc2cnccn12)c1ccccc1 (stereo not drawn) [Example 213, N-(1-phenylethyl)-2-(4-(phenylethynyl)thiophen-2-yl)imidazo[1,2-a]pyrazin-3-amine] | 84 |
| CC(C)(C)CC(C)(C)Nc1c(-c2ccc(C#Cc3ccccc3)s2)nc2c(Cl)cc(Cl)cn12 [Example 63, [6,8-dichloro-2-(5-phenylethynyl-thiophen-2-yl)-imidazo[1,2-a]pyridin-3-yl]-(1,1,3,3-tetramethyl-butyl)-amine] | 65 |
| CC(C)(C)CC(C)(C)Nc1c(-c2ccc(C#Cc3ccccc3)s2)nc2cnccn12 [Example 56, [2-(5-phenylethynyl-thiophen-2-yl)-imidazo[1,2-a]pyrazin-3-yl]-(1,1,3,3-tetramethyl-butyl)-amine] | 100 |
| CC(C)(C)CC(C)(C)Nc1c(-c2cccc(C#Cc3ccccn3)c2)nc2ccccn12 [Example 262, 2-(3-(pyridin-2-ylethynyl)phenyl)-N-(2,4,4-trimethylpentan-2-yl)imidazo[1,2-a]pyridin-3-amine] | 72 |
| COc1cccc(Nc2c(-c3ccc(C#Cc4ccccc4)s3)nc3ccc(C)cn23)c1 [Example 41, (3-methoxy-phenyl)-[6-methyl-2-(5-phenylethynyl-thiophen-2-yl)-imidazo[1,2-a]pyridin-3-yl]-amine] | 73 |
| Cc1cccn2c(NC3CCCCC3)c(-c3ccc(C#Cc4ccccc4)nc3)nc12 [Example 280, N-cyclohexyl-8-methyl-2-(6-(phenylethynyl)pyridin-3-yl)imidazo[1,2-a]pyridin-3-amine] | 31 |

Same assay, conditions: 3[H]-MPEP binding

| SMILES | IC50 [nM] |
| --- | --- |
| CC(C)(C)Nc1c(-c2ccc(C#Cc3cccc(OC(F)(F)F)c3)s2)nc2cnccn12 [Example 333, tert-butyl-{2-[5-(3-trifluoromethoxy-phenylethynyl)-thiophen-2-yl]-imidazo[1,2-a]pyrazin-3-yl}-amine] | 420 |
| CC(C)(C)Nc1c(-c2ccc(C#Cc3ccccc3)o2)nc2cnccn12 [Example 95, N-tert-butyl-2-(5-(phenylethynyl)furan-2-yl)imidazo[1,2-a]pyrazin-3-amine] | 1740 |
| CC(C)(C)Nc1c(-c2ccc(C#Cc3ccccc3)nc2)nc2cnccn12 [Example 126, N-tert-butyl-2-(6-(phenylethynyl)pyridin-3-yl)imidazo[1,2-a]pyrazin-3-amine] | 3250 |
| CC(C)(C)Nc1c(-c2ccc(C#Cc3ncccc3F)s2)nc2cnccn12 [Example 159, N-tert-butyl-2-(5-((3-fluoropyridin-2-yl)ethynyl)thiophen-2-yl)imidazo[1,2-a]pyrazin-3-amine hydrochloride] | 10 |
